{"source": "patent US20110263696A1", "about": "“PROANTHOCYANIDINS FROM CINNAMON AND ITS WATER SOLUBLE EXTRACT INHIBIT TAU AGGREGATION” (priority 2007, published 2011)", "key": {"tau187 [1]": {"target": "T1, tau187 (Homo sapiens, UniProt P10636)", "T1 construct": "his; made in house; host or cells: bacteria", "T1 sequence (P10636 572-758 limits assumed)": "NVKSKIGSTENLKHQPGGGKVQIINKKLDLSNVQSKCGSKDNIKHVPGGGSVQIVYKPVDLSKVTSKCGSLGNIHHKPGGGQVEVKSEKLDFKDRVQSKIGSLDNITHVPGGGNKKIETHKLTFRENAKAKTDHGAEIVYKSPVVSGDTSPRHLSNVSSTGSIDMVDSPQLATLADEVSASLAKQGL", "experiment": "Turbidity (OD350) assay of heparin-induced aggregation, tau187", "assay_type": "biochemical", "details": "trimer 12.5 uM as pure trimer or as whole extract (0.22 mg/mL CE); OD 350 (FIG. 17)", "procedure": "FIG. 15A. […] 50 μM Tau^187 was incubated with 0.11 mg/ml heparin (18 kDa) at 23° C. Aggregation was monitored by turbidity (OD350). Cinnamaldehyde was present at a final concentration of 0, 50 and 100 μM. FIG. 15B. Electron microscopy of tau fibers in the presence of cinnamaldehyde (CA). Tau fibers were visualized by electron microscopy after 5 hrs of aggregation in the presence of: 0 CA (left panel); B) 100 uM CA (right panel). […] FIG. 15 C. Trans-cinnamaldehyde chemical structure. FIG. 16A. […] 50 uM tau187 was incubated with 0.11 mg/mL heparin (18 kDa) at 23° C. Epicatechin was untreated, treated with 10 mM NH4OH for 10 min at 95° C. then neutralized, or treated with 100 U of mushroom tyrosinase (Sigma) for 10 min. Epicatechin was added to the reaction at a final concentration of 25 uM. Fiber formation was monitored by OD 350. FIG. 16B. epicatechin and catechin chemical structures. FIG. 17A. HPLC analysis of proanthocyanidin A-type trimer, A) purified or B) in whole cinnamon extract. The trimer corresponds to the major peak at ˜40 min. Areas underneath the peaks in panels A and B each correspond to 6150 pmoles. […] Fiber formation was monitored by OD 350. Concentrations of A-trimer in pure form and in whole cinnamon extract (CE) were normalized by absorbance measurements of the A-trimer resolved by HPLC. […]"}, "tau polypeptides": {"tested_on": "tau polypeptides", "sequence (P10636 572-758 limits assumed)": "as above", "experiment": "Light scattering measurements (absorbance at 350 nm) of tau aggregation", "assay_type": "biochemical, human", "procedure": "FIG. 11. Dose response of cinnamon (oxidized) on tau aggregation. […] In this experiment, cinnamon was incubated overnight in 10 mM NH4OH.\nFIG. 12. Effect of cinnamon A trimer on light scattering of tau.\nIn one illustrative embodiment of the invention, the effects of cinnamon extract or purified cinnamon proanthocyanidins on tau aggregation can be followed readily in a spectrophotometer by measuring the change in absorbance at 350 nm. The association of tau promoted by heparin causes an increase in absorbance. […] Different buffers and temperatures may be used if desired to study factor influencing aggregation."}, "Full-length tau": {"target": "T2, Full-length tau (Homo sapiens, UniProt P10636)", "T2 construct": "full-length tau and an engineered truncation fragment of tau (tau187) were generated by over-expression of the recombinant human protein in bacteria; made in house; host or cells: bacteria", "T2 sequence (P10636 1-441 isoform P10636-8)": "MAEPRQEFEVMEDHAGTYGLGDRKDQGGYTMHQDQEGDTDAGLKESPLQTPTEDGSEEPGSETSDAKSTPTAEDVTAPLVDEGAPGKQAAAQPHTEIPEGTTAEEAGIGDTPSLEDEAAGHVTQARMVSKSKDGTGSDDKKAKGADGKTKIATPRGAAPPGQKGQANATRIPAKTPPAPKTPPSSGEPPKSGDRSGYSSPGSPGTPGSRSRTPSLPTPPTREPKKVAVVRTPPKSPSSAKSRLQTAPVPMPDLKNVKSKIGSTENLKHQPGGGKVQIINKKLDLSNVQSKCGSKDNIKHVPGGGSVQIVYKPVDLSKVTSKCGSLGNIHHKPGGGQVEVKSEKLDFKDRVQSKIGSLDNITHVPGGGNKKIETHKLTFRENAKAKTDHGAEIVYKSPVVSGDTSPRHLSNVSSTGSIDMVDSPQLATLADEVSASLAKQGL", "experiment": "Ultracentrifugation and SDS-PAGE of pellet vs supernatant, full-length tau", "assay_type": "biochemical", "details": "200 uM trimer; 45 min; 100,000 g x 60 min (FIG. 3b)", "procedure": "FIG. 3. Proanthocyanidins inhibit tau aggregation. A) Turbidity assay. Aggregation of FL-tau (50 uM) was initiated with heparin (0.1 mg/ml) in 20 mM NaPO4, pH 7.0. Curve 1: no proanthocyanidin; Curve 2: 200 uM purified A-type trimer. B) After 45 min, reactions were centrifuged at 100,000 g×60 min. The amount of tau in the pellets (P) vs. supernatants (S) were examined by SDS-PAGE. Markers (top to bottom) are 97, 66, 45 kDa. C, D) EM after aggregation for 45 min. Scale bars=500 nm; C) no proanthocyanidin, D) 200 uM purified A-type trimer.\nFIG. 4. Cinnamon extract inhibits tau aggregation. […] Samples were then treated with 1% sarkosyl for 1 hr, centrifuged (105,000 g×1 hr), and the pellets (P) versus supernatants (S) then analyzed by SDS-PAGE. […]\n(§1) As shown by the data disclosed in the various figures, proanthocyanidins bind to tau and inhibit tau aggregation. […] In these experiments, heparin-induced aggregation of tau into PHF-like fibers is routinely monitored by four methods: 1) enhanced Thioflavin S fluorescence emission; 2) increased turbidity measured by OD350; 3) ultracentrifugation of sarkosyl-treated samples, and 4) electron microscopy. […] To ensure that proanthocyanidin molecules were not simply binding to and precipitating tau in a non-specific manner, the amount of tau that fractionated with the pellet vs. supernatant after high-speed ultracentrifugation was analyzed."}, "tau187 [2]": {"target": "T1, tau187", "experiment": "UV absorbance spectra, binding to tau", "details": "trimer 15 uM, 0-17.6 uM tau187, isosbestic point", "procedure": "FIG. 2. UV absorbance spectra of purified A-type proanthocyanidin trimer as a function of increasing tau concentration. The curves from top to bottom (at A280) are as follows: 0 uM; 4.4 uM; 8.8 uM; 17.6 uM tau^187; proanthocyanidin trimer=15 uM. As is known in the art, the isobestic points are found where the curves overlap.\nas §1, with “aggregation. In illustrative experiments, full-length tau and an engineered truncation fragment of tau (tau187) were generated by over-expression of the recombinant human protein in bacteria followed by purification to homogeneity by conventional chromatography. […] The UV spectra display an isosbestic point consistent with a specific binding mechanism.” for “aggregation.”"}, "tau": {"tested_on": "tau", "sequence (P10636 572-758 limits assumed)": "as the sequence (P10636 572-758 limits assumed) above", "experiment": "Tau aggregation / AD fiber formation in vitro (method not specified)", "assay_type": "biochemical", "procedure": "In a first illustrative embodiment of an extraction procedure of the invention, an extract is obtained by using nanopure water equal to 10 times the weight of cinnamon. The mixture is heated for 10 minutes at 95° C., cooled, and centrifuged at 14,000 rpm. The nearly clear supernatant is centrifuged again and then the clear supernatant is filtered through 0.4 and 0.2 micron filters and lyophilized. A fluffy pale tan colored powder can be obtained."}}}
{"substance": "A-linked proanthocyanidin trimer [A-type trimer]", "values": [{"measurement": "Inhibition of tau187 aggregation, whole extract vs pure trimer at equal trimer content", "setting": "tau187 [1]", "result": "inhibits tau polypeptide aggregation"}, {"measurement": "Inhibition of tau aggregation by light scattering", "setting": "tau polypeptides", "result": "inhibits the aggregation"}, {"measurement": "Tau in pellet vs supernatant after ultracentrifugation", "setting": "Full-length tau", "result": "remain in the soluble fraction"}, {"measurement": "Binding to tau by change in UV absorbance spectrum", "setting": "tau187 [2]", "result": "displays affinity for monomeric tau"}, {"measurement": "Binding to tau by change in UV absorbance spectrum", "setting": "tau187 [2]; listed as proanthocyanidin A", "result": "binds directly to tau"}, {"measurement": "Concentration that completely inhibits tau aggregation in vitro", "setting": "tau; complete inhibition of tau aggregation/AD fiber formation", "result": 0.17, "unit": "mg/ml PA trimer"}, {"measurement": "Effectiveness of purified PA trimer relative to CE", "setting": "tau; same amount of PA trimer, fraction of CE effect", "result": "½"}]}
